System: NCI-N87 cells
Experiment: In vitro assay of warhead, cell viability by MTS
Assay type: cell-based
Conditions: Homo sapiens, 168 h, 7 days incubation, mean of three independent replicates
Description: Solid test material was dissolved in DMSO to a 2 mM stock solution, from which eight serial dilutions were made at a 1:10 ratio in DMSO and stored at −20° C. until use.
Adherent NCI-N87 cells were washed with D-PBS and detached with Trypsin-EDTA, cell density and viability were then determined in duplicate by Trypan blue exclusion assay using an automated cell counter (LUNA-II™). Cell suspension was diluted to 1×10^5 cells/ml in growth media (RPMI 1640 with Glutamax+10% (v/v) HyClone™ Fetal Bovine Serum) and vortexed before dispensing 2 mL per well into sterile 3 mL polypropylene plates. Warhead dilutions were then dispensed into the appropriate wells at 10 μl/well and mixed by repeat pipetting. […] At the end of the incubation period time (7 days), cell viability was measured by CellTiter 96 ™ aqueous One (MTS) assay, which was dispensed at 20 μl/well and incubated for 4 hours at 37° C., 5% CO2. Plates were then read on an EnVision™ Multi-label Plate Reader (Perkin Elmer) using absorbance at 490 nm.
Cell survival percentage was calculated from the mean absorbance of the 2 replicate wells for each sample, compared to the mean absorbance in the two control wells treated with DMSO only (100%). The IC50 was determined by fitting each data set to sigmoidal dose-response curves with a variable slope using the non-linear curve fit algorithm on the GraphPad Prism software (San Diego, Calif.). […]

Q: CC[C@@]1(O)C(=O)OCc2c1cc1n(c2=O)Cc2c-1nc1ccc(N)c3c1c2CCC3 [Compound I11, (S)-4-amino-9-ethyl-9-hydroxy-1,2,3,9,12,15-hexahydro-10H,13H-benzo[de]pyrano[3′,4′:6,7]indolizino[1,2-b]quinoline-10,13-dione] was tested. Which IC50 did it give?
A: The IC50 was 0.385 nM.

Reference: patent US11446292B2, “Compounds and conjugates thereof” (MedImmune Limited, priority 2019, dated 2022)
